The source made the active and inactive calls. No cut-off for these calls is given here.
Tests used:
Ehrlich [1] = test: Antitumor activity against mouse EAC cells allografted in mouse assessed as decrease in reduction in tumor volume at 50 mg/kg, ip as 3 doses on day 4,6 and 8 after tumor onset measured on day 10; format: functional, organism-based; design: dose 50 mg/kg
Ehrlich [2] = test: Reduction in VEGF-A protein secretion in culture media of mouse EAC cells by ELISA; format: functional, cell-based
[3] = Cytotoxicity against mouse EAC cells after 48 hrs by trypan blue dye exclusion method; format: functional, cell-based; details: Ehrlich
[4] = Cytotoxicity against mouse DLA cells after 48 hrs by LDH release assay; format: functional, cell-based
Mus musculus [5] = test: Toxicity in Swiss albino mouse assessed as change in alkaline phosphatase level at 50 mg/kg, ip consecutively for 10 days (reference value: 124.98 +/- 1.2 IU/L); format: organism-based; design: dose 50 mg/kg, route intraperitoneal; details: in vivo, 240 h
[6] = Cytotoxicity against mouse EAC cells after 48 hrs by LDH release assay; format: functional, cell-based; details: Ehrlich
[7] = Cytotoxicity against mouse DLA cells after 48 hrs by MTT method; format: functional, cell-based
Mus musculus [8] = test: Toxicity in Swiss albino mouse assessed as change in WBC at 50 mg/kg, ip consecutively for 10 days (reference value: […]); format: organism-based; design: dose 50 mg/kg, route intraperitoneal; details: in vivo, 240 h
Ehrlich [9] = test: Antitumor activity against mouse EAC cells allografted in mouse assessed as zone of avascularization in peritoneum at 50 mg/kg, ip as 3 doses on day 4,6 and 8 after tumor onset measured on day 10; format: functional, organism-based; design: dose 50 mg/kg
Ehrlich [10] = test: Antitumor activity against mouse EAC cells allografted in mouse assessed as decrease in ascites fluid secretion at 50 mg/kg, ip as 3 doses on day 4,6 and 8 after tumor onset measured on day 10; format: functional, organism-based; design: dose 50 mg/kg
Ehrlich [11] = test: Antitumor activity against mouse EAC cells allografted in mouse assessed as reduction in VEGF-A protein expression in tumor cells at 50 mg/kg, ip as 3 doses on day 4,6 and 8 after tumor onset by immunoblot method relative to control; format: functional, organism-based; design: dose 50 mg/kg
[12] = Cytotoxicity against mouse DLA cells after 48 hrs by trypan blue dye exclusion method; format: functional, cell-based
Ehrlich [13] = test: Antitumor activity against mouse EAC cells allografted in mouse assessed as reduction in VEGF-A mRNA expression in tumor cells at 50 mg/kg, ip as 3 doses on day 4,6 and 8 after tumor onset by RT-PCR analysis; format: functional, organism-based; design: dose 50 mg/kg
Mus musculus [14] = test: Toxicity in Swiss albino mouse assessed as change in RBC at 50 mg/kg, ip consecutively for 10 days (reference value: 4.75 +/- 2.1 x 10^6 /uL); format: organism-based; design: dose 50 mg/kg, route intraperitoneal; details: in vivo, 240 h
Mus musculus [15] = test: Toxicity in Swiss albino mouse assessed as change in creatinine level at 50 mg/kg, ip consecutively for 10 days (reference value: 0.46 +/- 1.8 mg/dl); format: organism-based; design: dose 50 mg/kg, route intraperitoneal; details: in vivo, 240 h
Mus musculus [16] = test: Toxicity in Swiss albino mouse assessed as change in urea level at 50 mg/kg, ip consecutively for 10 days (reference value: 51 +/- 2.6 mg/dl); format: organism-based; design: dose 50 mg/kg, route intraperitoneal; details: in vivo, 240 h
[17] = Cytotoxicity against mouse EAC cells after 48 hrs by MTT method; format: functional, cell-based; details: Ehrlich
[18] = Antitumor activity against mouse EAC cells allografted in mouse assessed as increase in lifespan at 50 mg/kg, ip as 3 doses on day 4,6 and 8 after tumor onset measured on day 10 (reference value: 10 days); format: functional, Ehrlich; details: route intraperitoneal
Ehrlich [19] = test: Antitumor activity against mouse EAC cells allografted in mouse assessed as decrease in reduction in cell count at 50 mg/kg, ip as 3 doses on day 4,6 and 8 after tumor onset measured on day 10; format: functional, organism-based; design: dose 50 mg/kg
[20] = Antitumor activity against mouse EAC cells allografted in mouse assessed as reduction in VEGF-A protein secretion in tumor cells at 50 mg/kg, ip as 3 doses on day 4,6 and 8 after tumor onset by ELISA relative to control; format: functional, Ehrlich; details: route intraperitoneal

In the case of COc1ccc(-c2csc(NC(=O)COc3ccc(C(=O)c4ccc(F)cc4)cc3C)n2)cc1, the Activity (Ehrlich [1]) is reported as “Dose-dependent effect”, the Activity (Ehrlich [2]) is reported as “Dose-dependent effect” and the IC50 [3] is reported as 5.2 µM. The IC50 [4] was 5.5 µM, the Activity (Mus musculus [5]) was 129 IU/L and the IC50 [6] was 5.8 µM. The IC50 [7] was 5.4 µM, the Activity (Mus musculus [8]) was 3.89 ×10⁶ /uL and the Activity (Ehrlich [9]) was “Active”. The Activity (Ehrlich [10]) was “Dose-dependent effect”, the Activity (Ehrlich [11]) was “Active” and the IC50 [12] was 5 µM. The Activity (Ehrlich [13]) was “Active”, the Activity (Mus musculus [14]) was 5.13 ×10⁶ /uL and the Activity (Mus musculus [15]) was 0.44 mg/dL. For the same molecule, the Activity (Mus musculus [16]) was 48 mg/dL, the IC50 [17] was 5.4 µM and the Survival [18] was 34 days. For the same molecule, the Activity (Ehrlich [19]) was “Dose-dependent effect” and the “fold change (FC)” value [20] was 5.
Work on Cc1cc(C(=O)c2ccc(F)cc2)ccc1OCC(=O)Nc1nc(-c2ccccc2)cs1 yielded an IC50 [3] of 35.2 µM, an IC50 [4] of 34.7 µM and an IC50 [6] of 38.6 µM. For the same molecule, the IC50 [7] was 33.3 µM, the IC50 [12] was 32.1 µM and the IC50 [17] was 37.4 µM.
Work on COc1ccc(-c2csc(NC(=O)COc3ccc(C(=O)c4cccc(F)c4)cc3C)n2)cc1 yielded an IC50 [3] of 29.5 µM, an IC50 [4] of 30.3 µM and an IC50 [6] of 30.9 µM. It also gave an IC50 [7] of 28.4 µM, an IC50 [12] of 27.8 µM and an IC50 [17] of 30.7 µM.
O=c1[nH]cc(F)c(=O)[nH]1 [FLUOROURACIL] showed an IC50 [3] of 14.6 µM, an IC50 [4] of 16.8 µM and an IC50 [6] of 15.4 µM. It also gave an IC50 [7] of 15.6 µM and an IC50 [12] of 15.3 µM.
With Cc1cc(C(=O)c2cccc(Br)c2)ccc1OCC(=O)Nc1nc(-c2ccccc2)cs1 the IC50 [3] was 24.3 µM, the IC50 [4] was 23.6 µM and the IC50 [6] was 25.9 µM. The IC50 [7] was 23.8 µM, the IC50 [12] was 21.7 µM and the IC50 [17] was 24.4 µM.
Molecule O=C(COc1ccc(C(=O)c2ccccc2)cc1Br)Nc1nc(-c2ccccc2)cs1 has an IC50 [3] of 45.8 µM, an IC50 [4] of 43.5 µM and an IC50 [6] of 46.4 µM. For the same molecule, the IC50 [7] was 43.1 µM, the IC50 [12] was 42 µM and the IC50 [17] was 46 µM.
With Cc1cc(C(=O)c2ccccc2C)ccc1OCC(=O)Nc1nc(-c2ccccc2)cs1 the IC50 [3] was 24.3 µM, the IC50 [4] was 23.7 µM and the IC50 [6] was 26.4 µM. It also gave an IC50 [7] of 23.1 µM, an IC50 [12] of 22.2 µM and an IC50 [17] of 25.8 µM.
In the case of Cc1cc(C(=O)c2ccccc2)cc(C)c1OCC(=O)Nc1nc(-c2ccccc2)cs1, the IC50 [3] is reported as 22.1 µM, the IC50 [4] is reported as 19.9 µM and the IC50 [6] is reported as 23.4 µM. The IC50 [7] was 19.4 µM, the IC50 [12] was 19.1 µM and the IC50 [17] was 22.7 µM.
With COc1ccc(-c2csc(NC(=O)COc3ccc(C(=O)c4cccc(Br)c4)cc3C)n2)cc1 the IC50 [3] was 38.1 µM, the IC50 [4] was 37.1 µM and the IC50 [6] was 40.6 µM. The IC50 [7] was 36.6 µM, the IC50 [12] was 35.4 µM and the IC50 [17] was 39.2 µM.
Work on COc1ccc(-c2csc(NC(=O)COc3ccc(C(=O)c4ccc(C)cc4)cc3C)n2)cc1 yielded an IC50 [3] of 19.4 µM, an IC50 [4] of 18.7 µM and an IC50 [6] of 20.9 µM. For the same molecule, the IC50 [7] was 17.2 µM, the IC50 [12] was 16 µM and the IC50 [17] was 20.7 µM.
COc1ccc(-c2csc(NC(=O)COc3c(C)cc(C(=O)c4ccccc4)cc3C)n2)cc1 gave an IC50 [3] of 40.6 µM, an IC50 [4] of 40.1 µM and an IC50 [6] of 41.5 µM. For the same molecule, the IC50 [7] was 39.4 µM, the IC50 [12] was 38.4 µM and the IC50 [17] was 41.2 µM.
With Cc1cc(C(=O)c2ccccc2F)ccc1OCC(=O)Nc1nc(-c2ccccc2)cs1 the IC50 [3] was 15.4 µM, the IC50 [4] was 15.6 µM and the IC50 [6] was 16.9 µM. The IC50 [7] was 14.8 µM, the IC50 [12] was 13.7 µM and the IC50 [17] was 16.7 µM.
Cc1ccc(C(=O)c2ccc(OCC(=O)Nc3nc(-c4ccccc4)cs3)c(C)c2)cc1 showed an IC50 [3] of 28.4 µM, an IC50 [4] of 27.1 µM and an IC50 [6] of 30.5 µM. It also gave an IC50 [7] of 26.4 µM, an IC50 [12] of 25 µM and an IC50 [17] of 29.9 µM.
COc1ccc(-c2csc(NC(=O)COc3ccc(C(=O)c4ccccc4)cc3C)n2)cc1 showed an IC50 [3] of 27.1 µM, an IC50 [4] of 26.2 µM and an IC50 [6] of 28.6 µM. It also gave an IC50 [7] of 25.7 µM, an IC50 [12] of 24.2 µM and an IC50 [17] of 28.4 µM.
Cc1cc(C(=O)c2ccccc2)ccc1OCC(=O)Nc1nc(-c2ccccc2)cs1 showed an IC50 [3] of 22.3 µM, an IC50 [4] of 23 µM and an IC50 [6] of 24.5 µM. It also gave an IC50 [7] of 22.3 µM, an IC50 [12] of 21.5 µM and an IC50 [17] of 24 µM.

Source: ChEMBL document CHEMBL3351616, “Synthesis and evaluation of novel benzophenone-thiazole derivatives as potent VEGF-A inhibitors” (Eur J Med Chem, 2014)
